Laboratory results as given in PMC10254843, “Discovery of New 2-Phenylamino-3-acyl-1,4-naphthoquinones as Inhibitors of Cancer Cells Proliferation: Searching for Intra-Cellular Targets Playing a Role in Cancer Cells Survival” (Molecules, 2023).

Columns and labels:
[1] = system: MCF-7 human breast cancer cell line; design: method as in PMID 23167798; conditions: cytotoxicity against MCF-7; cited from earlier work
[2] = system: DU-145 (prostate cancer cells); assay: MTT cell survival assay, DU-145 prostate cancer cells; type: cell-based; conditions: Homo sapiens, MTT test, cells incubated at 37 °C for 48 h (Table 1 footnote), mean ± SEM, n = 3
Method: (§1) Human cancer cell lines from bladder (T24), prostate (DU–145), breast (MCF–7) and non-tumor HEK-293 cells were obtained from the American Type Culture Collection (ATCC, Manassas, VA, USA). The cultures were maintained at a density of 1–2 × 10^5 cells/mL and the medium was changed at 48- and 72-h intervals. They were cultured in high-glucose Dulbecco’s modified Eagle medium (Gibco, Grand Island, NY, USA) supplemented with 10% fetal calf serum, penicillin (100 U/mL) and streptomycin (100 μg/mL). All cultures were kept at 37 °C in 95% air/5% CO2 at 100% humidity. Phosphate-buffered saline (PBS) was purchased from Gibco. Cells were incubated at the indicated times at 37 °C with or without compounds 1–14 at various concentrations.
(§2) The cytotoxicity of the compounds 1–14 was assessed by following the reduction of MTT (3-(4,5-Dimethylthiazol-2-yl)-2,5-diphenyltetrazolium bromide) to formazan blue. […] Doxorubicin was used as a standard chemotherapeutic agent (positive control). Cells were washed twice with warm PBS and further incubated with MTT (0.5 mg/mL) for 2 h at 37 °C. Blue formazan crystals were solubilized by adding 100 µL DMSO/well, and the optical density of colored solutions was subsequently read at 550 nm in a microplate reader Tecan infinite M200 Pro (Männedorf, Switzerland). The compounds 1–14 were dissolved in DMSO (stock solution at 100 mM) and further diluted to be evaluated at the following concentrations: 0 μM, 1 μM, 10 μM, 20 μM, 40 μM, 60 μM, 80 μM and 100 μM. Results are expressed as % of MTT reduction compared to untreated control conditions. The IC50 values were calculated using the GraphPad Prism 8.0.2 software (San Diego, CA, USA).

[3] = system: MCF-7 (mammary cancer cells); assay: MTT cell survival assay, MCF-7 mammary cancer cells; type: cell-based; conditions: Homo sapiens, MCF7; MTT test; cells incubated at 37 °C for 48 h (Table 1 footnote); mean ± SEM, n = 3
Method: as §1, §2

[4] = system: T24 (Urinary bladder cancer cells); assay: MTT cell survival assay, T24 urinary bladder cancer cells; type: cell-based; conditions: Homo sapiens; MTT test; cells incubated at 37 °C for 48 h (Table 1 footnote); mean ± SEM, n = 3
Method: as §1, §2

[5] = system: non-tumorigenic HEK-293 (embryonic kidney cells); assay: MTT cell survival assay, non-tumorigenic HEK-293 cells; type: cell-based; conditions: Homo sapiens, HEK293; MTT test; cells incubated at 37 °C for 48 h (Table 1 footnote); mean ± SEM, n = 3
Method: as §1, §2

[6] = system: HEK-293 cells/tumour cells; assay: Mean selective index, HEK-293 vs tumour cells; type: cell-based, human; conditions: MSI = IC50 values HEK-293 cells/IC50 values tumour cells
Method: The cytotoxicity of the compounds 1–14 was assessed by following the reduction of MTT (3-(4,5-Dimethylthiazol-2-yl)-2,5-diphenyltetrazolium bromide) to formazan blue. Cells were seeded into 96-well plates at a density of 10,000 cells/well for 24 h and then they were further incubated for 24 h with or without the quinones. Doxorubicin was used as a standard chemotherapeutic agent (positive control). Cells were washed twice with warm PBS and further incubated with MTT (0.5 mg/mL) for 2 h at 37 °C. Blue formazan crystals were solubilized by adding 100 µL DMSO/well, and the optical density of colored solutions was subsequently read at 550 nm in a microplate reader Tecan infinite M200 Pro (Männedorf, Switzerland). The compounds 1–14 were dissolved in DMSO (stock solution at 100 mM) and further diluted to be evaluated at the following concentrations: 0 μM, 1 μM, 10 μM, 20 μM, 40 μM, 60 μM, 80 μM and 100 μM. Results are expressed as % of MTT reduction compared to untreated control conditions. The IC50 values were calculated using the GraphPad Prism 8.0.2 software (San Diego, CA, USA).

[7] = Half-wave potentials by cyclic voltammetry; type: physicochemical; conditions: for −E^I½ (mV): acetonitrile, platinum electrode, room temperature, negative of the potential; for half-wave potential: signed value
Method: Calculation of lipophilicity (ClogP) and molar refractivity (CMR) was assessed by using the ChemBioDraw Ultra 11.0 software and the obtained values are shown in Table 3. Redox potentials of 2-phenylamino-3-acyl-1,4-naphtoquinones 1–14 were measured by cyclic voltammetry at room temperature in acetonitrile as solvent using a platinum electrode and 0.1M tetraethylammonium tetrafluoroborate as the supporting electrolyte.

CDC25A = assay: RT-qPCR mRNA level of CDC25A in DU-145 cells; type: cell-based, human; conditions: DU145 cells, 24 h; compound 4 at 1 µM, compound 11 at 6 µM; normalized to B2M, 2^−∆∆Ct vs vehicle (1.00); mean ± SEM
Method: (§3) The […] cells were cultured as previously mentioned. […] Afterwards, they were washed with phosphate-buffered saline. The cellular lysate was prepared with E.Z.N.A.®RNA-Lock Reagent (Omega Bio-tek, Norcross, GA, USA) to preserve and immediately stabilize the total RNA for the subsequent gene expression assays. The total RNA isolated from the cells using the E.Z.N.A.®HP Total RNA Isolation Kit (Omega Bio-tek) was reverse-transcribed to cDNA using the AffinityScript QPCR cDNA Synthesis Kit (Agilent Technologies, Santa Clara, CA, USA) and 1000 ng of the RNA sample.
(§4) The cDNA synthesized was employed for qPCR using Brilliant III Ultra-Fast SYBR®Green QPCR Master Mix (Agilent Technologies) in an Mx3000P qPCR System (Agilent Technologies), employing a 96-well plate with 20 μL of PCR reaction per well and 10 pmol each of forward and reverse gene-specific primers. Nine genes were analyzed: B2M, Bcl2, CDC25A, CCN2, GSR, HDAC4, mTOR, TNF, TP53 and their quantitative real-time (qPCR) primer sequences are reported in Table S1 (supplementary material). The relative gene expressions were determined using Beta-2-microglobulin (B2M) as housekeeping, and the delta-delta Ct method (2^−∆∆Ct method) with regard to the vehicle-treated group (i.e., the reference group). Five biological replicates were used from each group (treated and reference group). […]

CCN2 = assay: RT-qPCR mRNA level of CCN2 in DU-145 cells; type: cell-based, human; conditions: DU145 cells, 24 h; compound 4 at 1 µM, compound 11 at 6 µM; normalized to B2M, 2^−∆∆Ct vs vehicle (1.00); mean ± SEM
Method: as §3, §4

GSR = assay: RT-qPCR mRNA level of GSR in DU-145 cells; type: cell-based, human; conditions: DU145 cells, 24 h; compound 4 at 1 µM, compound 11 at 6 µM; normalized to B2M, 2^−∆∆Ct vs vehicle (1.00); mean ± SEM
Method: as §3, §4

HDAC4 = assay: RT-qPCR mRNA level of HDAC4 in DU-145 cells; type: cell-based, human; conditions: DU145 cells, 24 h; compound 4 at 1 µM, compound 11 at 6 µM; normalized to B2M, 2^−∆∆Ct vs vehicle (1.00); mean ± SEM
Method: as §3, §4

TNF = assay: RT-qPCR mRNA level of TNF in DU-145 cells; type: cell-based, human; conditions: DU145 cells, 24 h; compound 4 at 1 µM, compound 11 at 6 µM; normalized to B2M, 2^−∆∆Ct vs vehicle (1.00); mean ± SEM
TP53 = assay: RT-qPCR mRNA level of TP53 in DU-145 cells; type: cell-based, human; conditions: DU145 cells, 24 h; compound 4 at 1 µM, compound 11 at 6 µM; normalized to B2M, 2^−∆∆Ct vs vehicle (1.00); mean ± SEM
Method: as §3, §4

Bcl-2 = assay: RT-qPCR mRNA level of Bcl-2 in DU-145 cells; type: cell-based, human; conditions: DU145 cells, 24 h; compound 4 at 1 µM, compound 11 at 6 µM; normalized to B2M, 2^−∆∆Ct vs vehicle (1.00); mean ± SEM
Method: as §3, §4

mTOR = assay: RT-qPCR mRNA level of mTOR in DU-145 cells; type: cell-based, human; conditions: DU145 cells, 24 h; compound 4 at 1 µM, compound 11 at 6 µM; normalized to B2M, 2^−∆∆Ct vs vehicle (1.00); mean ± SEM; * p < 0.05 vs vehicle
Method: as §3, §4

| SMILES | IC50 [1] [nM] | IC50 [2] [µM] | IC50 [3] [µM] | IC50 [4] [µM] | IC50 [5] [µM] | MSI (mean selective index) [6] | −E^I½ (mV) [7] [mV] | half-wave potential [7] [mV] | Relative expression level (mRNA level) CDC25A (CDC25A) | Relative expression level (mRNA level) CCN2 (CCN2) | Relative expression level (mRNA level) GSR (GSR) | Relative expression level (mRNA level) HDAC4 (HDAC4) | Relative expression level (mRNA level) TNF (TNF) | Relative expression level (mRNA level) TP53 (TP53) | Relative expression level (mRNA level) Bcl-2 (Bcl-2) | Relative expression level (mRNA level) mTOR (mTOR) |
| --- | --- | --- | --- | --- | --- | --- | --- | --- | --- | --- | --- | --- | --- | --- | --- | --- |
| O=C(C1=C(Nc2ccccc2)C(=O)c2ccccc2C1=O)c1ccco1 [compound V] | 1500 |  |  |  |  |  |  |  |  |  |  |  |  |  |  |  |
| O=C(C1=C(Nc2ccccc2)C(=O)c2ccccc2C1=O)c1ccco1 [Compound 11] |  | 5.45 ± 0.21 | 4.64 ± 0.23 | 11.7 ± 0.84 | > 100 | 13.7 | 578 | −578 | 0.90 ± 0.05 | 0.95 ± 0.09 | 0.94 ± 0.06 | 0.81 ± 0.07 | 0.93 ± 0.08 | 0.87 ± 0.05 |  |  |
| O=C(C1=C(Nc2ccccc2)C(=O)c2ccccc2C1=O)c1ccccc1 [Compound 4, 2-(Phenylamino)-3-benzoylnaphthalene-1,4-dione] |  | 0.82 ± 0.1 | 5.16 ± 0.16 | 15.8 ± 0.9 | 45.2 ± 6.59 | 6.2 | 695 | −695 | 1.09 ± 0.10 | 0.95 ± 0.03 | 0.95 ± 0.05 | 0.91 ± 0.05 | 1.20 ± 0.08 | 0.94 ± 0.04 | 0.81 ± 0.05 | 0.84 ± 0.06 |
